Measured values from patent publication US8852657B2, “Chromones as therapeutic agents” (Unigen, Inc., priority 2007, dated 2014).
Entries after “also recorded” stand apart in the source; their conditions may differ.

What was measured:
[1] = system: adiponectin secreted into the media by differentiated 3T3-L1 cells; experiment: Adiponectin ELISA assay, improved protocol (differentiated 2 days, treated 48 hours); format: cell-based, mouse; conditions: for activity in the adiponectin assay: sub-fractions and isolated compounds of P0017-OE
Description: (§1) 3T3-L1, an embryonic mouse cell line (American Type Culture Collection, Manassas, Va.), is a sub-strain of the 3T3 swiss albino line that can differentiate from a pre-adipose to adipose state. These preadipocytes were cultured in Dulbecco's modified Eagle medium (DMEM) containing 10% fetal bovine serum (FBS) (Mediatech, Inc., Herndon, Va.).
(§2) To establish a differentiation protocol, the 3T3-L1 cells were plated into 96-well plates and cultured overnight to confluence. The confluent cells were induced to differentiate 2 days post-confluence. The induction was conducted with 0.5 mM isobutylmethylzanthine, 1.0 μM dexamethasone and 1.7 μM insulin (Sigma-Aldrich, St. Louis, Mo.) supplemented into culture media. On the 7th day the adipocytes were treated with the control compounds or plant extracts for 24 hours. All controls and plant extracts were solublized in DMSO and added to the culture media at 1% of the total volume. Cell media was collected to measure the levels of adiponectin and assayed by enzyme-linked immunosorbent assay (ELISA) according to the manufacturer's protocol (R&D Systems, Minneapolis, Minn.). The assay sensitivity ranged from 31.25-2000 pg/mL. The positive controls were tested in a range from 0.01 to 300 μM (FIG. 1).
Due to the poor signal to background ratio of the assay (less than 2), the previously mentioned protocol needed to be improved. Adipocytes were plated and differentiated as previously described. The cells were differentiated in the differentiation medium for 48 hours either with or without the addition of insulin. Then the cells were treated with the control compounds or plant extracts for only 48 hours post-differentiation. All other parameters were the same as previously mentioned. The indomethacin (FIG. 1) and troglitazone (data not shown) controls were tested at 10-100 μM and 3-30 μM respectively. The greatest increase in the level of adiponectin was 52-fold above the signal of baseline which was achieved by indomethacin treatment at 100 μM, while the lowest increase was 7-fold with indomethacin at 10 μM (FIG. 1B).

[2] = system: C57BL/6J mice fed high fat diet; experiment: Plasma insulin level (ELISA), high-fat diet induced model; format: in vivo, mouse; conditions: day 14 of treatment after 8 weeks high-fat diet; P<0.05; GW1929 5 mg/kg, UP394 and UP396 100 mg/kg
Text: A high-fat diet induced animal model was developed and used for evaluation of potential therapeutic effects of chromone extracts. The C57BL/6J is a clinically relevant animal model that can be used in studies on metabolic disorders, pathophysiology of impaired glucose tolerance and for development of novel therapeutic agents (Ahren et al. (2004) Diabetes 53 (Supplement 3):S215-S219; Laakso et al. (2004) Diabetes Care 27:2253-2259; Kahn et al. (2004) Diabetes 53:3274-3285; Scheurink et al. (1998) European J Endo. 139:461-467; Yuan et al. (2002) Diabetes 51:1851-1858; Reitman et al. (2005) Endocrinology 145:3258-3264; Vlassara et al. (2005) Diabetes 54:2314-2319; Cawthome et al. (2002) Molecular and Cellular Proteomics 1:509-516). Methodology of model induction was first explained by Surwit et al. in 1988 (Diabetes, 37:1163-1167). In brief, impaired glucose tolerance and metabolic disorder like symptoms were inflicted successfully in C57BL/6J mice when fed with high fat diets for 8 weeks. Male C57BL/6J mice were purchased from Jackson Laboratories (Bar Harbor, Me.) at age of 6 weeks. One week after acclimation period, animals were divided into groups (n=5 or 6) and provided with high fat (45% kcal) rodent pellet (Research diets, Inc., New Brunswick, N.J.) and water ad libitum for 12 weeks except at times of glucose and insulin tolerance tests at which feed was withheld for three hours. Animals were maintained in a temperature controlled room (22.2° C.) on a 12 hour light-dark cycle. Blood glucose, cholesterol, and triglyceride were monitored every week for 12 weeks as described previously. Body weight measurement was taken once a week for 12 weeks.
Once induction of the metabolic disorders was confirmed by weekly monitoring of selected parameters (glucose, triglyceride and cholesterol) i.e. on the 8th week, daily intraperitoneal treatment was initiated and maintained for 4 weeks. […]
The plasma insulin levels were measured with an ELISA kit for insulin (Crystal Chem—Chicago, Ill.). […]

[3] = system: tyrosinase; conditions: in vitro; Yagi et al. (1987); cited from earlier work
[4] = system: human intestinal bacteria; conditions: cited from earlier work
[5] = system: C57BL/6J mice fed high fat diet; experiment: Intraperitoneal glucose tolerance test, high-fat diet induced model (UP394/UP396); format: in vivo, mouse; conditions: day 18; times 60, 90 and 120 minutes; p<0.05; GW1929 5 mg/kg, UP396 100 mg/kg intraperitoneally
Text: A high-fat diet induced animal model was developed and used for evaluation of potential therapeutic effects of chromone extracts. The C57BL/6J is a clinically relevant animal model that can be used in studies on metabolic disorders, pathophysiology of impaired glucose tolerance and for development of novel therapeutic agents (Ahren et al. (2004) Diabetes 53 (Supplement 3):S215-S219; Laakso et al. (2004) Diabetes Care 27:2253-2259; Kahn et al. (2004) Diabetes 53:3274-3285; Scheurink et al. (1998) European J Endo. 139:461-467; Yuan et al. (2002) Diabetes 51:1851-1858; Reitman et al. (2005) Endocrinology 145:3258-3264; Vlassara et al. (2005) Diabetes 54:2314-2319; Cawthome et al. (2002) Molecular and Cellular Proteomics 1:509-516). Methodology of model induction was first explained by Surwit et al. in 1988 (Diabetes, 37:1163-1167). […] Blood glucose, cholesterol, and triglyceride were monitored every week for 12 weeks as described previously. […]
An intraperitoneal glucose tolerance test was conducted using the C57BL/6J mice as described in Example 12 at a dose of 2 g/kg on day 18 of treatment with intraperitoneal administration of GW1929 (5 mg/kg), UP394 (100 mg/kg), UP396 (100 mg/kg) and vehicle. […] Blood glucose levels were measured at time 0, 30, 60, 90, and 120 minutes. […]

[6] = system: adiponectin secreted into the media by differentiated 3T3-L1 cells; experiment: Adiponectin ELISA assay, previously published protocol (differentiated 7 days, treated 24 hours); format: cell-based, mouse; conditions: for fold increase in adiponectin level: 1 μM, greatest fold increase, differentiated 7 days, treated 24 hours
Description: as §1, §2

CC(=O)Cc1cc(=O)c2c(C)cc(O)c([C@@H]3O[C@H](CO)[C@@H](O)[C@H](O)[C@H]3O)c2o1 [UP394, aloesin]
fold increase in adiponectin level ([1]; 30 μM, treated 48 hours): 2 fold | activity in the adiponectin assay [1]: active in increasing adiponectin production | activity in the adiponectin assay ([1]; listed as P0017-AC1): exhibited activity in the adiponectin assay | plasma insulin levels compared to vehicle [2]: decreased the insulin levels significantly; also recorded: Significant decreases in plasma insulin levels | inhibition of tyrosinase activity [3]: strong inhibitor | cleavage of the c-glucosyl bond [4]: can be cleaved

aloesinol [UP396]
activity in the adiponectin assay [1]: active in increasing adiponectin production | activity in the adiponectin assay ([1]; listed as P0017-AC2): exhibited activity in the adiponectin assay | glucose utilization in intraperitoneal glucose tolerance test compared to vehicle [5]: Significant glucose utilization | plasma insulin levels compared to vehicle [2]: decreased the insulin levels significantly; also recorded: Significant decreases in plasma insulin levels

Cc1c(C)c2c(c(C)c1O)CCC(C)(COc1ccc(CC3SC(=O)NC3=O)cc1)O2 (stereo not drawn) [troglitazone]
fold increase in adiponectin level [6]: 1.7 fold | fold increase in adiponectin level ([1]; 3 μM, treated 48 hours): 24 fold | fold increase in adiponectin level ([1]; 30 μM, treated 48 hours): 49 fold

Cc1cc(O)c(C2OC(O)C(O)C(O)C2CO)c2oc(CC(C)O)cc(=O)c12 (stereo not drawn) [UP396, aloesinol]
fold increase in adiponectin level ([1]; 30 μM, treated 48 hours): 3.2 fold

COc1ccc2c(c1)c(CC(=O)O)c(C)n2C(=O)c1ccc(Cl)cc1 [indomethacin]
fold increase in adiponectin level [6]: 1.6 fold | signal to background ratio of the assay ([6]; best ratio, indomethacin at concentrations between 0.1-300 μM, published experimental conditions): 1.6 | fold increase in adiponectin level ([1]; 10 μM, differentiated 2 days, treated 2 days): 7 fold | fold increase in adiponectin level ([1]; 100 μM, differentiated 2 days, treated 2 days): 52 fold
